Source: patent US11136291B2, “Antifungal compounds and uses thereof” (Dana-Farber Cancer Institute, Inc., priority 2016, dated 2021)
Values after ≈ are worked out from the molar mass of the structure shown. “Also recorded” adds a separate entry of the source.

Columns and labels:
[1] = test system: PDRE-dependent luciferase gene transcription; type: cell-based, Saccharomyces cerevisiae; settings: 40 μM ketoconazole
CgGal11A KIX domain = molecular target: T1, CgGal11A KIX domain (Candida glabrata, UniProt Q6FRS9); test: Fluorescence polarization (FP) binding/competition assay, CgPdr1 AD30 with CgGal11A KIX; settings: calculated from measured Kd and IC50; read-out: apparent Ki
T1 construct: other: compared with iKIX1; other: GST-CgGal11A KIX 3 μM, 30 nM FITC-CgPdr1 AD30; Kd of CgPdr1 AD30 for CgGal11A KIX domain; other: FP titration, 30 nM FITC-CgPdr1 AD30; Kd of the CgPdr1 AD for the CgGal11A KIX domain; apparent Ki; fused on or other part: N-terminal His6-GST tag
Description: A fluorescein-tagged 30 amino acid C-terminal activation domain of CgPdr1 (FITC-[…] (SEQ ID NO: 1)) CgPdr1 AD30 was purchased as a synthetic peptide from Pepide2.0. The CgGal11A KIX domain was expressed as a His6-GST fusion protein and purified by affinity chromatography with Ni-NTA resin (Qiagen) and size exclusion chromatography (Sephadex 75, Pharmacia). […] For small molecule screening, fluorescein-CgPdr1 AD30 was held at a concentration of 30 nM and the GST-tagged CgGal11A KIX was at a concentration of 1 μM (above the Kd). The screen was carried out in duplicate and the volume in each well was 25 μL.
To measure the dissociation constant (Kd) of CgPdr1 AD30, FITC labeled CgPdr1 AD30 was held at a concentration of 30 nM and the GST-tagged CgGal11A KIX was prepared with concentrations ranging from 0 to 300 μM. The IC50 for iKIX-1 binding was measured with GST-tagged CgGal11A KIX held at a constant 3 μM concentration, iKIX-1 was titrated from 0 to 1000 μM and 30 nM FITC-labeled CgPdr1 AD30 was added subsequently with an HP D300 digital dispenser (Tecan Group. Maennerdorf, Switzerland). All experiments were carried out in duplicate and the s.d. is reported at each point on the plot.
The FP titration curve of the CgPdr1 AD30 was fitted to GraphPad Prisms (La Jolla, Calif., USA) One site-total binding equation (equation 1). […]

[2] = In vitro stability (plasma, microsomes) and in vivo mouse pharmacokinetics
Description: Microsome stability assays were performed as previously described (see, e.g., Choi J Y, Calvet C M, Gunatilleke S S, Ruiz C, Cameron M D, McKerrow J H, et al. Rational development of 4-aminopyridyl-based inhibitors targeting Trypanosoma cruzi CYP51 as anti-chagas agents. J Med Chem. 56(19):7651-68. PMCID: 3864028); for plasma stability, 100% freshly drawn plasma in LiHeparin was used with similar sampling and sample preparation with no addition of microsomes, buffer or NADPH.
Male Swiss albino mice were dosed via tail vein (IV; intravenous, solution in 5% NMP and 10% solutol in saline, dose: 2 mg/kg) or via oral gavage (PO; suspensions in 0.5% w/v Na CMC with 0.1% v/v Tween-80 in water). Blood and brain samples were collected at 0, 0.083 (for IV only), 0.25, 0.5, 1, 2, 4, 6 (for PO only), 8, 12, and 24 hours for the IV and PO groups. The blood samples were collected from sets of three mice at each time point. Plasma samples were separated by centrifugation and stored below −70° C. until analysis. Brain samples were homogenized using ice-cold phosphate buffer saline (pH 7.4) and homogenates were stored below −70° C. until analysis. All samples were processed and analyzed by […] (LLOQ, 2.03 ng/mL for plasma and 10.16 ng/mL for brain). Pharmacokinetic parameters were calculated using the noncompartmental analysis tool of Phoenix WinNonlin (version 5.3).

Candida albicans DSY2621 = test: Broth dilution MIC
Description: Antifungal susceptibility testing was carried out using broth dilution assays which examined effects of two-fold dilutions of compounds on cellular growth. The minimum inhibitory concentration (MIC) was defined as the drug concentration at which the optical density was equal to or decreased more than 50% from that of the drug-free culture.

C. glabrata = test: Mouse disseminated fungal burden model; type: in vivo; settings: for fungal burden (CFU/g kidney): Cgpdr1 null strain (SFY93)
S. cerevisiae = test: Cell growth inhibition screen with 5 μM ketoconazole; settings: in the presence of 5 μM ketoconazole
Description: S. cerevisiae SEY6210 wild-type strains were grown in YPD (U % yeast extract, 2% bacto peptone, 2% dextrose) at 30° C. with shaking overnight until saturation. The next day, cultures were inoculated to an OD600 of 0.0007 and grown for 17 hours, to an OD600˜0.5, 384-well plates were set up in duplicate with either YPD alone or with YPD containing a final concentration of 5 μM ketoconazole. 384-well plates contained 5 two-fold dilutions of each compound, corresponding to a final concentration range of 20 μg/mL to 1.25 μg/mL. Wells were inoculated with cells to a final OD600 of 0.00025 in YPD.

[3] = test system: Gal11/Med15 recruitment to Pdr1-regulated target genes; test: Chromatin immunoprecipitation (ChIP) assay; type: cell-based, Saccharomyces cerevisiae
Description: ChIP was performed according to standard procedures (see. e.g., McConnell A D, Gelbart M E, Tsukiyama T. Histone fold protein Dls1p is required for Isw2-dependent chromatin remodeling in vivo. Mol Cell Biol. 2004; 24(7):2605-13. PMCID: 371119). Briefly, cells were grown to saturation then washed 2 times with sterilized Milli-Q (Millipore) water, resuspended to an OD600 of 0.8 in YP (1% yeast extract, 2% bacto peptone) and then grown for 6 hours at 30° C. with shaking in the presence of DMSO (vehicle) or iKIX1. Cultures were induced with ketoconazole to a final concentration of 40 μM and harvested at the times indicated. 2 mL of culture was harvested at 0′ and 15′ for matched transcription samples; RNA was prepared as described below. Cells were fixed with 1% formaldehyde (final) for 15 minutes with swirling and then quenched with 125 mM glycine (final) for 5 min. with swirling. Cells were pelleted, washed with TBS+125 mM glycine and then TBS. Cells were lysed in buffer containing 50 mM HEPES, pH 7.5, 140 mM NaCl, 1% Triton X-100, 0.1% sodium deoxycholate, 1 mM EDTA and protease inhibitors and 0.5 mm glass beads. Glass beads were removed by centrifugation before cell lysate was sonicated to obtain 150 to 400 base pair fragments. […]

T1 sequence (Q6FRS9 whole entry, looked up, the tested form may be a part): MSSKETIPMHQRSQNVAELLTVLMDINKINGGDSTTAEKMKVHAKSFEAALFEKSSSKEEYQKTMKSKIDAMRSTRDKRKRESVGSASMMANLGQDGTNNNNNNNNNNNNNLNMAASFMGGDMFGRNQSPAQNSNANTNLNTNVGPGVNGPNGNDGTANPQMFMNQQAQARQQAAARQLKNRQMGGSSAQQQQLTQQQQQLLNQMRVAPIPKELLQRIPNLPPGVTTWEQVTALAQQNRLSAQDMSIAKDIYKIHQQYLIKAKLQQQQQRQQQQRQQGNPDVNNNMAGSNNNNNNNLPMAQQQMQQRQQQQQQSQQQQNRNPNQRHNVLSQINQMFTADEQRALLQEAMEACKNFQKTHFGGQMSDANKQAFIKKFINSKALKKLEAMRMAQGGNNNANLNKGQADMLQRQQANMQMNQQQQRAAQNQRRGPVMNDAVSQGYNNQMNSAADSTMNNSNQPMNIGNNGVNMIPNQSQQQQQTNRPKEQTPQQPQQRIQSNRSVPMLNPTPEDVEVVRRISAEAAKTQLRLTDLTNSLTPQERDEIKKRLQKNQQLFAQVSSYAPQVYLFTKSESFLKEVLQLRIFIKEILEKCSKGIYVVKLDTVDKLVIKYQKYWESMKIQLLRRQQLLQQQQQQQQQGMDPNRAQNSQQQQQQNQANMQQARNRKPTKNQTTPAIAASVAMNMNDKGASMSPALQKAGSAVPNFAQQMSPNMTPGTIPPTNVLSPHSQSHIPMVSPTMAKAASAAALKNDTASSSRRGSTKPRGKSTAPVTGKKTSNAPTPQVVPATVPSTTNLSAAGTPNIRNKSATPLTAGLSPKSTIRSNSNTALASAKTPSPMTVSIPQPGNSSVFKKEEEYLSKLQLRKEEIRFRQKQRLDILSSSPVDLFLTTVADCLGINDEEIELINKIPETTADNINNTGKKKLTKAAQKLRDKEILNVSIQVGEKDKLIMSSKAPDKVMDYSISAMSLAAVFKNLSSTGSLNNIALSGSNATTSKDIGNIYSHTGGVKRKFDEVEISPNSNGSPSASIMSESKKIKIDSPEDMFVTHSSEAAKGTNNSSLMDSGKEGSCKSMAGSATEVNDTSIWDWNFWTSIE

SMILES: N#CCC(=O)NNC(=S)Nc1ccc(Cl)c(Cl)c1 [iKIX1, 2-(2-Cyanoacetyl)-N-(3,4-dichlorophenyl)hydrazinecarbothioamide]
- ketoconazole-induced luciferase activity (in words) [1]: able to block this induction in a concentration-dependent manner; also recorded: inhibits ketoconazole (KET)-induced upregulation of luciferase activity in a dose-responsive manner
- Ki (CgGal11A KIX domain): 18.1 µM
- in vitro stability and in vivo mouse pharmacokinetics (in words) [2]: favorable drug-like properties and in vivo exposure
- MIC (Candida albicans DSY2621): 12.5 µM (≈ 3.79 µg/mL)
- reductions in fungal burdens in the kidney and spleen (C. glabrata; CgPDR1^L280F strain, iKIX1 100 mg/kg with 100 mg/kg fluconazole, i.p. once daily, 7 days, P<0.0001): ~10 fold
- fungal burden (CFU/g kidney) (C. glabrata; iKIX1 alone, 100 mg/kg/day): significantly reduces fungal burden; also recorded: more sensitive to iKIX1 alone
- fungal burden (CFU/g kidney) (C. glabrata; low iKIX1 (10 mg/kg/day) added to fluconazole, 10 mg/kg/day): did not confer additional reductions in CFU/g kidney; also recorded: did not further reduce fungal burden
- tissue fungal burden in the kidney and spleen (C. glabrata; […], iKIX1 100 mg/kg co-treatment with 100 mg/kg fluconazole): did not result in further reductions
- fungal tissue burdens in the spleen or kidney (C. glabrata; […], iKIX1 combination with fluconazole): reduces fungal tissue burdens in the spleen or kidney
- reductions in fungal burdens in both organs (kidney, spleen) (C. glabrata; mouse, in vivo, 25 mg/kg): ~10 fold
- cell growth (S. cerevisiae): inhibits cell growth in a concentration-dependent manner
- constitutive occupancy of Pdr1 at Pdr1-regulated target genes ([3]; 20 μM iKIX1): did not impede the constitutive occupancy of Pdr1
- ketoconazole-induced recruitment of Gal11/Med15 to promoters of PDR5 and SNQ2 ([3]; iKIX1 pre-treatment): ketoconazole-induced recruitment of Gal11/Med15 was abrogated
